Measured values taken from publication PMC8498006 (Advances in Redox Research, 2021).

Experiments:
[1] = target: SARS-CoV-2 M^pro (MBP-tagged main protease) (Severe acute respiratory syndrome coronavirus 2, UniProt P0DTD1); assay: biochemical; conditions: for suppressive effect on the protease activity at 20 µM: 20 µM phytochemical, 0.5 µM enzyme, 37°C 30 min
[2] = target: T1, SARS-CoV-2 M^pro (MBP-cleaved) (Severe acute respiratory syndrome coronavirus 2, UniProt P0DTD1); assay: Intact MS of M^pro after incubation with phytochemicals; assay type: binding; conditions: 0.5 µM enzyme; for covalent adduct on M^pro by intact MS: 1 µM phytochemical, 37°C 30 min
[3] = target: T1, SARS-CoV-2 M^pro (MBP-cleaved); assay: Enzyme activity of MBP-cleaved M^pro with EGCG/myricetin, with or without GSH; assay type: biochemical; conditions: 0.5 µM enzyme
[4] = target: T1, SARS-CoV-2 M^pro (MBP-cleaved); assay: Quinone detection on blotted membrane by redox-cycling; assay type: binding; conditions: 2.5 µM phytochemical, 1 mM GSH
[5] = target: T1, SARS-CoV-2 M^pro (MBP-cleaved); assay: Free thiols in the enzyme by biotin incorporation; conditions: iodoacetyl-LC-biotin labelling

Row | Compound | IC50 [1] [µM] | suppressive effect on the protease activity at 20 µM [1] | covalent adduct on M^pro by intact MS [2] | further results
1 | C=CCN=C=S [AITC, Allyl isothiocyanate] | 33.3 | – | – | –
2 | S=C=NCc1ccccc1 [BITC, benzyl isothiocyanate] | 4.5 | considerably inhibited | – | –
3 | C[C@@H]1O[C@@H](OC[C@H]2O[C@@H](Oc3c(-c4ccc(O)c(O)c4)oc4cc(O)cc(O)c4c3=O)[C@H](O)[C@@H](O)[C@@H]2O)[C@H](O)[C@H](O)[C@H]1O [rutin, quercetin-3-O-rutinoside] | – | did not show suppressive effect | – | –
4 | S=C=NCCc1ccccc1 [PEITC, phenethyl isothiocyanate] | 14.2 | – | – | –
5 | COc1ccc(-c2cc(=O)c3c(O)c(OC)c(O[C@@H]4O[C@H](CO[C@@H]5O[C@@H](C)[C@H](O)[C@@H](O)[C@H]5O)[C@@H](O)[C@H](O)[C@H]4O)cc3o2)cc1 [pectolinarin] | – | did not show suppressive effect | – | –
6 | O=c1c(O)c(-c2cc(O)c(O)c(O)c2)oc2cc(O)cc(O)c12 [myricetin] | – | considerably inhibited | One or two molecule(s) | dose dependence of adduction by intact MS ([2]; 0–5 µM): dose-dependently observed; enzyme activity with increasing concentration ([3]; 0–5 µM, substrate reaction 15 min): decreased accordingly; enzyme activity loss in the presence of GSH ([3]; 2.5 µM phytochemical, 1 mM GSH, 30 min): canceled; quinone staining in the presence of GSH [4]: canceled; free thiols in the M^pro with increasing concentration [5]: decreased
7 | OC[C@H]1O[C@@H](Oc2cc3c(O)cc(O)cc3[o+]c2-c2ccc(O)c(O)c2)[C@H](O)[C@@H](O)[C@@H]1O.[Cl-] [cyanidine-3-glucoside, Cyanidine-3-glucoside chloride] | – | did not show suppressive effect | – | –
8 | myricitrin | – | – | covalent adducts were not observed | –
9 | O=c1c(O)c(-c2ccc(O)c(O)c2)oc2cc(O)cc(O)c12 [quercetin] | – | did not show suppressive effect | – | –
10 | O=c1cc(-c2ccccc2)oc2cc(O)c(O)c(O)c12 [baicalein] | – | – | covalent adducts were not observed | –
11 | O=c1c(O)c(-c2ccc(O)cc2)oc2c(O)c(O)cc(O)c12 [herbacetin] | 19.2 | – | covalent adducts were not observed | –
12 | O=c1c(O)cc([C@H]2Oc3cc(O)cc(O)c3C[C@H]2O)cc2c([C@H]3Oc4cc(O)cc(O)c4C[C@H]3O)cc(O)c(O)c12 [theaflavin] | 6.1 | considerably inhibited | One or two molecule(s) | –
13 | Oc1cc(O)cc(/C=C/c2ccc(O)c(O)c2)c1 [piceatannol] | 13.8 | – | One or two molecule(s) | –
